This series relates to Tetrahymena pyriformis. Nature of the series: 48 h IGC50 (-log10 mol/L); higher = more toxic.
With `O=[N+]([O-])c1ccc(Cl)nc1`, the “48 h IGC50 (-log10 mol/L)” value is 3.8.
For `O=[N+]([O-])c1cc(Cl)c(Cl)c([N+](=O)[O-])c1Cl` the value was 5.6; for `O=C(O)CCCCCCCBr`, 4.32; for `CC(=O)C(Cl)C(C)=O`, 4.44.
Take `Nc1c(Br)cc([N+](=O)[O-])cc1[N+](=O)[O-]`: the “48 h IGC50 (-log10 mol/L)” value was 4.24.
For `OCc1ccc(-c2ccccc2)cc1`, the “48 h IGC50 (-log10 mol/L)” value worked out at 3.92.
On to `CCC(=O)CC`, for which the “48 h IGC50 (-log10 mol/L)” value turned out to be 1.54.
For the compound `N#CCC(=O)c1ccco1`, the “48 h IGC50 (-log10 mol/L)” value is 3.3.
For `Oc1c(Cl)c(Cl)c(O)c(Cl)c1Cl` the value was 5.11.
Then `CCOC(=O)C=C(OCC)OCC`, with 2.35; and `O=[N+]([O-])c1ccncc1`, with 3.41; and `OCC#CCO`, with 1.12.
Then `OCc1cc(Br)ccc1O`, with 3.34.
Regarding `CNCC(O)CO` (stereo unspecified), the “48 h IGC50 (-log10 mol/L)” value is 1.47.
Then `CCCCC(N)CO` (stereo unspecified), with 2.42; and `CC/C=C\CCCCCC=O`, with 3.95.
As for `NC(=O)c1ccc(Cl)cc1`, the “48 h IGC50 (-log10 mol/L)” value was 3.09.
For `C=C(C)C(=O)OCCCCCC` the value was 4.09; for `OCCBr`, 2.15.
Then `C=C(C)OC(C)=O`, with 2.51.
On to `COc1ccc(C=O)cc1`, for which the “48 h IGC50 (-log10 mol/L)” value was found to be 2.95.
Take `CCCC(N)CO` (stereo unspecified): the “48 h IGC50 (-log10 mol/L)” value turned out to be 2.33.
As to `C=C(C)C(=O)OC`, the “48 h IGC50 (-log10 mol/L)” value was 1.78.
Regarding `C#CC=CCO`, the “48 h IGC50 (-log10 mol/L)” value was found to be 2.44.
For `CCC#CC(=O)OCC` the value was 3.82.
Then `O=Cc1ccc(I)o1`, with 3.33.
For the compound `CCCCOc1ccc(O)cc1`, the “48 h IGC50 (-log10 mol/L)” value was determined as 3.7.
For `C/C=C/C(=O)O` the value was 2.46.
Regarding `CCCCOC(=O)CC`, the “48 h IGC50 (-log10 mol/L)” value turned out to be 3.17.
Then `Clc1cc(Cl)cc(Cl)c1`, with 3.87; and `Clc1cccc2ccccc12`, with 3.81; and `O=C(/C=C/c1ccccc1)N=C=S`, with 3.29.
For `CCCCCCC(O)CC` (stereo unspecified) the value was 3.36.
On to `CCCCCCCCCCCC#N`, for which the “48 h IGC50 (-log10 mol/L)” value was found to be 4.9.
Then `O=[N+]([O-])c1ccc(Nc2ccccc2)cc1`, with 4.89.
Regarding `BrCCCc1ccccc1`, the “48 h IGC50 (-log10 mol/L)” value was 3.69.
`C#CCNC`: the “48 h IGC50 (-log10 mol/L)” value amounted to 2.02.
For the compound `CC(=O)N(C)C`, the “48 h IGC50 (-log10 mol/L)” value was 1.05.
Then `N#CCc1ccc(Br)cc1`, with 3.6.
Then `N#CSCc1ccccc1`, with 4.05; and `O=C(O)c1cccc(Cl)c1Cl`, with 2.59; and `CCCCCOc1ccc(N)cc1`, with 3.97.
Then `CC(=O)c1c(C)c[nH]c1C`, with 2.68; and `COC(=O)c1ccc(Br)cc1`, with 3.6; and `O=[N+]([O-])c1cccc2ncccc12`, with 3.39.
In the case of `N#CC(=O)c1ccccc1`, the “48 h IGC50 (-log10 mol/L)” value worked out at 3.31.
As for `Oc1c(Cl)cc(F)cc1Cl`, the “48 h IGC50 (-log10 mol/L)” value was 3.8.
For `CCCC(CCC)C(=O)O` the value was 3.03.
For `Fc1nc(F)c(F)c(Br)c1F` the value was 2.87; for `O=C(Oc1ccccc1)c1ccc(O)cc1`, 4.37.
Take `CCN(C)CC`: the “48 h IGC50 (-log10 mol/L)” value worked out at 2.24.
For `O=[N+]([O-])c1cc(O)ccc1Cl`, the “48 h IGC50 (-log10 mol/L)” value is 4.27.
As for `C/C=C/C(C)=O`, the “48 h IGC50 (-log10 mol/L)” value is 3.54.
Consider `CCOC(=O)/C=C/c1ccccc1`, for which the “48 h IGC50 (-log10 mol/L)” value was found to be 3.99.
As to `CCCCCCCCCN`, the “48 h IGC50 (-log10 mol/L)” value turned out to be 4.7.
Turning to `Brc1ccncc1.Cl`, the “48 h IGC50 (-log10 mol/L)” value is 2.44.
As for `O=Cc1cc(I)cc(I)c1O`, the “48 h IGC50 (-log10 mol/L)” value turned out to be 5.34.
Consider `CCCCC/C=C/C(=O)O`, for which the “48 h IGC50 (-log10 mol/L)” value amounted to 3.21.
`Fc1ccccn1`: the “48 h IGC50 (-log10 mol/L)” value is 1.8.
On to `C=C(C)C(=O)OCC(C)C`, for which the “48 h IGC50 (-log10 mol/L)” value came to 2.72.
For `CCCCC(C)O` (stereo unspecified) the value was 2.07; for `C=CCOC(=O)CC#N`, 2.21.
For `CCCOC(=O)CCC` the value was 2.59.
Then `C#CC(C)(O)CCC` (stereo unspecified), with 2.1; and `OC1CCCCC1`, with 2.23.
As to `O=C/C=C/c1ccccc1`, the “48 h IGC50 (-log10 mol/L)” value was 3.68.
`O=C(CO)c1ccccc1`: the “48 h IGC50 (-log10 mol/L)” value came out at 3.08.
`C=COC(=O)/C=C/C`: the “48 h IGC50 (-log10 mol/L)” value is 2.85.
For `N#Cc1ccc(Cl)c([N+](=O)[O-])c1` the value was 4.71; for `CC(=O)C(C)=O`, 2.77.
On to `COCC(C)N` (stereo unspecified), for which the “48 h IGC50 (-log10 mol/L)” value was 2.17.
Then `CCOC(=O)C[C@H](C)O`, with 1.47.
Turning to `CC/C=C\CCO`, the “48 h IGC50 (-log10 mol/L)” value was 2.19.
Then `NCCc1ccc(Cl)cc1`, with 3.14; and `SC1CCCCC1`, with 3; and `ClC/C=C/CCl`, with 3.77.
Then `CCCNCCO`, with 1.32; and `OCCCCCCBr`, with 3.01; and `CCC(=O)NC`, with 1.47.
For `O=[N+]([O-])c1ccc(/C=N/O)cc1` the value was 3.68; for `CCCCCOC=O`, 2.22.
Take `c1cn[nH]c1`: the “48 h IGC50 (-log10 mol/L)” value was found to be 1.29.
For `O=C(O)CCCBr`, the “48 h IGC50 (-log10 mol/L)” value was found to be 2.23.
For `CCOC(=O)C(C)C(=O)OCC` the value was 2.49; for `CCC(=O)CC(=O)CC`, 2.62.
Then `CCSc1ccccc1`, with 3.3; and `CCC#CC(O)CC` (stereo unspecified), with 2.97; and `c1ccc(Cc2ccncc2)cc1`, with 3.63.
Then `O=C(O)c1cccc(O)c1`, with 2.19; and `CCOC(=O)CI`, with 5.92.
Consider `CCCCCC(=O)Cl`, for which the “48 h IGC50 (-log10 mol/L)” value worked out at 3.34.
For `C=CS(=O)(=O)c1ccccc1` the value was 4.28; for `CCC#CCC(O)CC` (stereo unspecified), 2.62.
For `CCC(=O)C(=O)CC` the value was 2.99.
For `Cc1cc(O)cc(C)c1Br` the value was 4.27; for `O=Cc1ccc(F)cc1`, 2.87.
Consider `N#Cc1cccs1`, for which the “48 h IGC50 (-log10 mol/L)” value came to 2.24.
For the compound `NC(=O)c1cccc([N+](=O)[O-])c1`, the “48 h IGC50 (-log10 mol/L)” value came out at 2.81.
For the compound `O=C(c1ccccc1)c1ccccc1O`, the “48 h IGC50 (-log10 mol/L)” value came to 4.23.
Then `CCN(CC)C(=O)CCl`, with 3.52; and `NCCCCO`, with 2.02.
